Laboratory results reported in article PMC6199309, “A therapeutic approach to pantothenate kinase associated neurodegeneration” (Nature Communications, 2018).

Experiments:
[1] = biological target: T1, PRKD3 (Homo sapiens, UniProt O94806); assay: KINOMEscan; type: binding; details: read-out: %Ctrl @ 10000nM
T1 construct: purchased DiscoverX KINOMEscan

[2] = biological target: T2, RPS6KA5(Kin.Dom.2-C-terminal) (Homo sapiens, UniProt O75582); assay: KINOMEscan; type: binding; details: read-out: %Ctrl @ 10000nM
T2 construct: RPS6KA5(Kin.Dom.2-C-terminal); purchased DiscoverX KINOMEscan

[3] = biological target: T3, ERK1 (Homo sapiens, UniProt P27361); assay: KINOMEscan; type: binding; details: read-out: %Ctrl @ 10000nM
T3 construct: purchased DiscoverX KINOMEscan

[4] = biological target: T4, PAK1 (Homo sapiens, UniProt Q13153); assay: KINOMEscan; type: binding; details: read-out: %Ctrl @ 10000nM
T4 construct: purchased DiscoverX KINOMEscan

[5] = biological target: T5, PIKFYVE (Homo sapiens, UniProt Q9Y2I7); assay: KINOMEscan; type: binding; details: read-out: %Ctrl @ 10000nM
T5 construct: purchased DiscoverX KINOMEscan

[6] = biological target: T6, FGFR1 (Homo sapiens, UniProt P11362); assay: KINOMEscan; type: binding; details: read-out: %Ctrl @ 10000nM
T6 construct: purchased DiscoverX KINOMEscan

[7] = biological target: T7, PKAC-beta (Homo sapiens, UniProt P22694); assay: KINOMEscan; type: binding; details: read-out: %Ctrl @ 10000nM
T7 construct: purchased DiscoverX KINOMEscan

[8] = biological target: T8, ASK2 (Homo sapiens, UniProt O95382); assay: KINOMEscan; type: binding; details: read-out: %Ctrl @ 10000nM
T8 construct: purchased DiscoverX KINOMEscan

[9] = biological target: T9, TAK1 (Homo sapiens, UniProt O43318); assay: KINOMEscan; type: binding; details: read-out: %Ctrl @ 10000nM
T9 construct: purchased DiscoverX KINOMEscan

[10] = biological target: T10, ABL1-nonphosphorylated (Homo sapiens, UniProt P00519); assay: KINOMEscan; type: binding; details: read-out: %Ctrl @ 10000nM
T10 construct: purchased DiscoverX KINOMEscan

[11] = biological target: T11, WNK4 (Homo sapiens, UniProt Q96J92); assay: KINOMEscan; type: binding; details: read-out: %Ctrl @ 10000nM
T11 construct: DNA label for qPCR (T7 phage fusion or DNA tag); purchased DiscoverX scanMAX; host or cells: E. coli BL21-derived (T7 phage) or HEK-293

[12] = biological target: T12, ABL2 (Homo sapiens, UniProt P42684); assay: KINOMEscan; type: binding; details: read-out: %Ctrl @ 10000nM
T12 construct: purchased DiscoverX KINOMEscan

[13] = biological target: T13, RIPK1 (Homo sapiens, UniProt Q13546); assay: KINOMEscan; type: binding; details: read-out: %Ctrl @ 10000nM
T13 construct: purchased DiscoverX KINOMEscan

[14] = biological target: T14, MAST1 (Homo sapiens, UniProt Q9Y2H9); assay: KINOMEscan; type: binding; details: read-out: %Ctrl @ 10000nM
T14 construct: purchased DiscoverX KINOMEscan

[15] = biological target: T15, PLK1 (Homo sapiens, UniProt P53350); assay: KINOMEscan; type: binding; details: read-out: %Ctrl @ 10000nM
T15 construct: purchased DiscoverX KINOMEscan

[16] = biological target: T16, ULK1 (Homo sapiens, UniProt O75385); assay: KINOMEscan; type: binding; details: read-out: %Ctrl @ 10000nM
T16 construct: DNA label for qPCR (T7 phage fusion or DNA tag); purchased DiscoverX scanMAX; host or cells: E. coli BL21-derived (T7 phage) or HEK-293

[17] = Plasma stability; type: in vitro ADME; details: human, read-out: Plasma Stability T1/2
[18] = biological target: T17, IRAK3 (Homo sapiens, UniProt Q9Y616); assay: KINOMEscan; type: binding; details: read-out: %Ctrl @ 10000nM
T17 construct: purchased DiscoverX KINOMEscan

[19] = biological target: T18, ABL1(F317I)-nonphosphorylated (Homo sapiens, UniProt P00519, F317I); assay: KINOMEscan; type: binding; details: read-out: %Ctrl @ 10000nM
T18 construct: purchased DiscoverX KINOMEscan

[20] = biological target: T19, FAK (Homo sapiens, UniProt Q05397); assay: KINOMEscan; type: binding; details: read-out: %Ctrl @ 10000nM
T19 construct: purchased DiscoverX KINOMEscan

[21] = biological target: T20, MEK5 (Homo sapiens, UniProt Q13163); assay: KINOMEscan; type: binding; details: read-out: %Ctrl @ 10000nM
T20 construct: purchased DiscoverX KINOMEscan

[22] = biological target: T21, INSR (Homo sapiens, UniProt P06213); assay: KINOMEscan; type: binding; details: read-out: %Ctrl @ 10000nM
T21 construct: purchased DiscoverX KINOMEscan

[23] = biological target: T22, MAPKAPK2 (Homo sapiens, UniProt P49137); assay: KINOMEscan; type: binding; details: read-out: %Ctrl @ 10000nM
T22 construct: purchased DiscoverX KINOMEscan

[24] = biological target: T23, IRAK1 (Homo sapiens, UniProt P51617); assay: KINOMEscan; type: binding; details: read-out: %Ctrl @ 10000nM
T23 construct: purchased DiscoverX KINOMEscan

[25] = biological target: T24, DDR1 (Homo sapiens, UniProt Q08345); assay: KINOMEscan; type: binding; details: read-out: %Ctrl @ 10000nM
T24 construct: purchased DiscoverX KINOMEscan

[26] = biological target: T25, AMPK-alpha1 (Homo sapiens, UniProt Q13131); assay: KINOMEscan; type: binding; details: read-out: %Ctrl @ 10000nM
T25 construct: purchased DiscoverX KINOMEscan

[27] = biological target: T26, CHEK1 (Homo sapiens, UniProt O14757); assay: KINOMEscan; type: binding; details: read-out: %Ctrl @ 10000nM
T26 construct: purchased DiscoverX KINOMEscan

[28] = biological target: T27, PRKG2 (Homo sapiens, UniProt Q13237); assay: KINOMEscan; type: binding; details: read-out: %Ctrl @ 10000nM
T27 construct: purchased DiscoverX KINOMEscan

[29] = biological target: T28, WEE2 (Homo sapiens, UniProt P0C1S8); assay: KINOMEscan; type: binding; details: read-out: %Ctrl @ 10000nM
T28 construct: DNA label for qPCR (T7 phage fusion or DNA tag); purchased DiscoverX scanMAX; host or cells: E. coli BL21-derived (T7 phage) or HEK-293

[30] = biological target: T29, PRKD2 (Homo sapiens, UniProt Q9BZL6); assay: KINOMEscan; type: binding; details: read-out: %Ctrl @ 10000nM
T29 construct: purchased DiscoverX KINOMEscan

[31] = biological target: T30, NEK6 (Homo sapiens, UniProt Q9HC98); assay: KINOMEscan; type: binding; details: read-out: %Ctrl @ 10000nM
T30 construct: purchased DiscoverX KINOMEscan

[32] = biological target: T31, PRKR (Homo sapiens, UniProt P19525); assay: KINOMEscan; type: binding; details: read-out: %Ctrl @ 10000nM
T31 construct: purchased DiscoverX KINOMEscan

[33] = biological target: T32, RSK3(Kin.Dom.2-C-terminal) (Homo sapiens, UniProt Q15349); assay: KINOMEscan; type: binding; details: read-out: %Ctrl @ 10000nM
T32 construct: RSK3(Kin.Dom.2-C-terminal); purchased DiscoverX KINOMEscan

[34] = biological target: T33, CDK2 (Homo sapiens, UniProt P24941); assay: KINOMEscan; type: binding; details: read-out: %Ctrl @ 10000nM
T33 construct: purchased DiscoverX KINOMEscan

[35] = biological target: T34, RPS6KA5(Kin.Dom.1-N-terminal) (Homo sapiens, UniProt O75582); assay: KINOMEscan; type: binding; details: read-out: %Ctrl @ 10000nM
T34 construct: RPS6KA5(Kin.Dom.1-N-terminal); purchased DiscoverX KINOMEscan

[36] = biological target: T35, GRK3 (Homo sapiens, UniProt P35626); assay: KINOMEscan KdELECT; type: binding
T35 construct: DNA tag for qPCR (T7 phage fusion or DNA label); purchased DiscoverX KdELECT; host or cells: E. coli BL21-derived (T7 phage) or HEK-293

[37] = biological target: T36, SGK (Homo sapiens, UniProt O00141); assay: KINOMEscan; type: binding; details: read-out: %Ctrl @ 10000nM
T36 construct: purchased DiscoverX KINOMEscan

[38] = biological target: T37, PFTK1 (Homo sapiens, UniProt O94921); assay: KINOMEscan; type: binding; details: read-out: %Ctrl @ 10000nM
T37 construct: purchased DiscoverX KINOMEscan

[39] = biological target: T38, ABL1(H396P)-nonphosphorylated (Homo sapiens, UniProt P00519, H396P); assay: KINOMEscan; type: binding; details: read-out: %Ctrl @ 10000nM
T38 construct: purchased DiscoverX KINOMEscan

[40] = biological target: T39, MST3 (Homo sapiens, UniProt Q9Y6E0); assay: KINOMEscan; type: binding; details: read-out: %Ctrl @ 10000nM
T39 construct: purchased DiscoverX KINOMEscan

T9 sequence (O43318 whole entry): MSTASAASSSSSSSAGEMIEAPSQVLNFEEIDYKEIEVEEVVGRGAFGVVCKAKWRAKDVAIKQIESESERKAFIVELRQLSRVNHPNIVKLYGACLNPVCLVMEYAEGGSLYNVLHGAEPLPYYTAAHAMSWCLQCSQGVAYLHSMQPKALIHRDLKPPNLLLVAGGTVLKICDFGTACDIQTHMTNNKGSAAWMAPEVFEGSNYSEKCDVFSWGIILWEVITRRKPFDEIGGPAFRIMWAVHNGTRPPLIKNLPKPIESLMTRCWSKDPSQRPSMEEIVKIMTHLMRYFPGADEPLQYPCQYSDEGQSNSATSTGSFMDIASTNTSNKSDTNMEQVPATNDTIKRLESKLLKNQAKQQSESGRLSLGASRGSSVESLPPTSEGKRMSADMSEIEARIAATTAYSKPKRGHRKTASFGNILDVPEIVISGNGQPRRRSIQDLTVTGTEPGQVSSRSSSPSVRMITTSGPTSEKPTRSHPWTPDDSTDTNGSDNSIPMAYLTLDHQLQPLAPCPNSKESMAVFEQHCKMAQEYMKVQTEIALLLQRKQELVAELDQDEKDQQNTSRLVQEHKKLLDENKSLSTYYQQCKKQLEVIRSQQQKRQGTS
T6 sequence (P11362 22-822): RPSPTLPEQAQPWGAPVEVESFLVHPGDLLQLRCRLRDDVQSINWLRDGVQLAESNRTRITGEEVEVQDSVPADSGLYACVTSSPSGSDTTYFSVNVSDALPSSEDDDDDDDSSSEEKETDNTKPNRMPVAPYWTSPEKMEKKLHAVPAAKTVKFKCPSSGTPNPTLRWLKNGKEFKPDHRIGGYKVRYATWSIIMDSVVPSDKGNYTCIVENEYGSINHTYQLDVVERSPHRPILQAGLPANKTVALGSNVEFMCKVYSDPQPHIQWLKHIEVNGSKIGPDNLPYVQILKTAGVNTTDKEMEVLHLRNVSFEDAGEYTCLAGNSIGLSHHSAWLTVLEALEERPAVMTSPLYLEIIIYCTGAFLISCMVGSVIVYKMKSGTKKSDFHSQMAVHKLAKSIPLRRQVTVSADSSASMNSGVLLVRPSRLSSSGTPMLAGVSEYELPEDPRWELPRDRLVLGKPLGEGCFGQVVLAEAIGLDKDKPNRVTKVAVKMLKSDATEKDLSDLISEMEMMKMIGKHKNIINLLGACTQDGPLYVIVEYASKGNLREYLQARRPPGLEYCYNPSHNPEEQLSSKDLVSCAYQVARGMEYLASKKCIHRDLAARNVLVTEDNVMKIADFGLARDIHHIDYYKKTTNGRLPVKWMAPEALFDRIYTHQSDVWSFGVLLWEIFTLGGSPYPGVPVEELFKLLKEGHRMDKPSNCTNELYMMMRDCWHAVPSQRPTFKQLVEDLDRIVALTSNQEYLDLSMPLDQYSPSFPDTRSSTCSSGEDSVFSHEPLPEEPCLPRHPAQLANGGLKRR
T23 sequence (P51617 whole entry): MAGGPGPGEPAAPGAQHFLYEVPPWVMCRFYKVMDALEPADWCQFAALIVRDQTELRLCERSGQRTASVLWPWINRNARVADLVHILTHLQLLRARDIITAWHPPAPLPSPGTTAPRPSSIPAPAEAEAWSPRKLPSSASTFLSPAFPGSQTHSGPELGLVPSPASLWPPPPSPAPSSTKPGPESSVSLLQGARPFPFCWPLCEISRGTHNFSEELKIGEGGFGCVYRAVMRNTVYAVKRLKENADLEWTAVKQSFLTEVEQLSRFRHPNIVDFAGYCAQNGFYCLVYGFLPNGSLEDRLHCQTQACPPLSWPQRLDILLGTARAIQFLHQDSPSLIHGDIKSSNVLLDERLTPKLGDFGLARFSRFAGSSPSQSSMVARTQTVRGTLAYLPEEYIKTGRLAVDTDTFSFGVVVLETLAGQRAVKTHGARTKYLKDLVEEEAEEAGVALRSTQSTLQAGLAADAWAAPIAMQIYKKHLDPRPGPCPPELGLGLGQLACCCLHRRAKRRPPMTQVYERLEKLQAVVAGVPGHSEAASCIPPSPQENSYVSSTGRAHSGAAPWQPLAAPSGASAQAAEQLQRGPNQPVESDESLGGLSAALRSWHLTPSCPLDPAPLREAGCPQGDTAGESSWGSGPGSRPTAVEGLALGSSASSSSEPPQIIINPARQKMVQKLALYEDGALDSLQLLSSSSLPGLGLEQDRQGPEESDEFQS
T29 sequence (Q9BZL6 whole entry): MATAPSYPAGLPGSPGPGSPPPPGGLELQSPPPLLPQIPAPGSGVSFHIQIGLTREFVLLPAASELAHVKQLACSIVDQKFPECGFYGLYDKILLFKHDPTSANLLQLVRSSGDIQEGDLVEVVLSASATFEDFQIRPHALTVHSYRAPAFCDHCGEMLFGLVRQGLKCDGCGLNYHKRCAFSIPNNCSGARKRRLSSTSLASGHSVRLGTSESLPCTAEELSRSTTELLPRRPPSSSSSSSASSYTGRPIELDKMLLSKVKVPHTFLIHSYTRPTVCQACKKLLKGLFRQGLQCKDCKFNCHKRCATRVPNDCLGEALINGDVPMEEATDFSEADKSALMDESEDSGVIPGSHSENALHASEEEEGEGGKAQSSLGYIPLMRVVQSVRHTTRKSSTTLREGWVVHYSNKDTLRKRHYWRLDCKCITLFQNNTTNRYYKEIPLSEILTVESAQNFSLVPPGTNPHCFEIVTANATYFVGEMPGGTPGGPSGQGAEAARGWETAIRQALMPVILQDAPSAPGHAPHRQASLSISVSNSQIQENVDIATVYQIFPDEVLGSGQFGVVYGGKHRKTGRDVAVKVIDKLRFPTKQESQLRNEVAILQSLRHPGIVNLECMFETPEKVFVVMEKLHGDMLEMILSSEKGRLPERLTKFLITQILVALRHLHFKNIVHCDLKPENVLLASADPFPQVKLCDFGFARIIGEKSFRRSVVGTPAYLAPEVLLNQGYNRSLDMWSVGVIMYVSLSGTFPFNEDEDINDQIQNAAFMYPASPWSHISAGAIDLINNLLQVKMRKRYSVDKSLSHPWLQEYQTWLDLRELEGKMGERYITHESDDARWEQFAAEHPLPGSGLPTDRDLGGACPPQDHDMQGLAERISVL
T8 sequence (O95382 whole entry): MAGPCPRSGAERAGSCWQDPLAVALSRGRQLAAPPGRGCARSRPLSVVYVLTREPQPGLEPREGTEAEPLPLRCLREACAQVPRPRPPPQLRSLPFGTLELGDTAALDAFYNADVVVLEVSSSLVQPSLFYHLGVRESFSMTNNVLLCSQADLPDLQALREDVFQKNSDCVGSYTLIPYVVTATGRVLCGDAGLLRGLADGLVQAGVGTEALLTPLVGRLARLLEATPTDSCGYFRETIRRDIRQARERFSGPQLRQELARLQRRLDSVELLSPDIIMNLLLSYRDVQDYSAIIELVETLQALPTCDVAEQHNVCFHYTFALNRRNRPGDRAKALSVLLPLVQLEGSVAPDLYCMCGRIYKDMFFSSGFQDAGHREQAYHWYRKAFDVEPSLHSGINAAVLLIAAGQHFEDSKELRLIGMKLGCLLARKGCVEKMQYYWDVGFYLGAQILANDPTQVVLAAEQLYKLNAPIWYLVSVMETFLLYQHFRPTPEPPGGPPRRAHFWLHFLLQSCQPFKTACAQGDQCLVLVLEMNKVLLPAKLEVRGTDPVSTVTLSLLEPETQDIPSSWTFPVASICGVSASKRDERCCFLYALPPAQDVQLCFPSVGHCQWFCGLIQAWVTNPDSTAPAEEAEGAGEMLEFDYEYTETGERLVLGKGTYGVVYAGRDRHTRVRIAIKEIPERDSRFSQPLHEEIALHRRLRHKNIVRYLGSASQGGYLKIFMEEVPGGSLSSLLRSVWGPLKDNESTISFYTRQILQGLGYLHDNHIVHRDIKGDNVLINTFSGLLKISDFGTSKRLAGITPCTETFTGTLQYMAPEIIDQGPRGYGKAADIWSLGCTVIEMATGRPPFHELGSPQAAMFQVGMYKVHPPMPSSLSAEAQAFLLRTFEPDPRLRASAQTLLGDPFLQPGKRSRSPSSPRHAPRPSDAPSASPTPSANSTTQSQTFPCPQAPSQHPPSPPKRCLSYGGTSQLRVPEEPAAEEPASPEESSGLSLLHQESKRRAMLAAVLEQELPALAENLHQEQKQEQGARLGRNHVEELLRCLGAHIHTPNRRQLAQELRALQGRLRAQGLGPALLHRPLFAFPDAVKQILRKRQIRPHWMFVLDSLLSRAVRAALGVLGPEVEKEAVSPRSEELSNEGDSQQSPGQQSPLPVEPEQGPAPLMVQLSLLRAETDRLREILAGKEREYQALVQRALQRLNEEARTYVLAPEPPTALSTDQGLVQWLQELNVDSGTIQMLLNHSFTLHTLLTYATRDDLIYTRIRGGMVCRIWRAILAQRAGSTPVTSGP
T20 sequence (Q13163 whole entry): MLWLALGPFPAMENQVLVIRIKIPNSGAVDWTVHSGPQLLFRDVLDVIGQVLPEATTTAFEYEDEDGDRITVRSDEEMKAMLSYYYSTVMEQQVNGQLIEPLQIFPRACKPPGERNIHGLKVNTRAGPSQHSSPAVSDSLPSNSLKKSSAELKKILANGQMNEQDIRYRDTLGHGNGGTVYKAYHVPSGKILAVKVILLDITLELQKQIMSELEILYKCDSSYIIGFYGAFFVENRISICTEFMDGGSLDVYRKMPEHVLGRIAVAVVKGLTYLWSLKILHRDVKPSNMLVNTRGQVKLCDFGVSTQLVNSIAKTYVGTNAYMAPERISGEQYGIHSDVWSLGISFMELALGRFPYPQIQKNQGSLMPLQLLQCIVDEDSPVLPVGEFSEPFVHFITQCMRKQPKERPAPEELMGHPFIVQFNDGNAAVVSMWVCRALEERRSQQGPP
T30 sequence (Q9HC98 whole entry): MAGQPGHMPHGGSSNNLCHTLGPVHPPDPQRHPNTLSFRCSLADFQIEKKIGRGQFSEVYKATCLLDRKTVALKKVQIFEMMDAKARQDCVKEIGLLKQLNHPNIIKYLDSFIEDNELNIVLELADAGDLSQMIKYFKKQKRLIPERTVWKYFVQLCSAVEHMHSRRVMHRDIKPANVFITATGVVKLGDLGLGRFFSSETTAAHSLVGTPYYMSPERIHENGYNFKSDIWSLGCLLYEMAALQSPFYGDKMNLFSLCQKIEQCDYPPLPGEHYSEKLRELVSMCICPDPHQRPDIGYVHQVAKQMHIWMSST

CC(C)c1ccc(CC(=O)N2CCN(c3ccc(C#N)nn3)CC2)cc1 [PZ-2891, 6-(4-(2-(4-isopropylphenyl)acetyl)piperazin-1-yl)pyridazine-3-carbonitrile]
remaining binding at 10 µM [1]: 66% | remaining binding at 10 µM [2]: 96% | remaining binding at 10 µM [3]: 91% | remaining binding at 10 µM [4]: 76% | remaining binding at 10 µM [5]: 72% | remaining binding at 10 µM [6]: 87% | remaining binding at 10 µM [7]: 95% | remaining binding at 10 µM [8]: 83% | remaining binding at 10 µM [9]: 67% | remaining binding at 10 µM [10]: 65% | remaining binding at 10 µM [11]: 69% | remaining binding at 10 µM [12]: 96% | remaining binding at 10 µM [13]: 98% | remaining binding at 10 µM [14]: 61% | remaining binding at 10 µM [15]: 85% | remaining binding at 10 µM [16]: 82% | half-life [17]: > 50 h | remaining binding at 10 µM [18]: 42% | remaining binding at 10 µM [19]: 77% | remaining binding at 10 µM [20]: 89% | remaining binding at 10 µM [21]: 69% | remaining binding at 10 µM [22]: 84% | remaining binding at 10 µM [23]: 88% | remaining binding at 10 µM [24]: 91% | remaining binding at 10 µM [25]: 81% | remaining binding at 10 µM [26]: 92% | remaining binding at 10 µM [27]: 83% | remaining binding at 10 µM [28]: 76% | remaining binding at 10 µM [29]: 99% | remaining binding at 10 µM [30]: 82% | remaining binding at 10 µM [31]: 91% | remaining binding at 10 µM [32]: 100% | remaining binding at 10 µM [33]: 66% | remaining binding at 10 µM [34]: 87% | remaining binding at 10 µM [35]: 93% | Kd [36]: > 30 µM | remaining binding at 10 µM [37]: 61% | remaining binding at 10 µM [38]: 92% | remaining binding at 10 µM [39]: 74% | remaining binding at 10 µM [40]: 73%
